For eight molecules, GI50 and TGI results are on record in PubChem BioAssay (NCI).

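Growth conditions: 96-well plates. Treatment: test compound, 48 hours, 5 concentrations. Analysis: linear interpolation between bracketing concentrations; unreached endpoints set to highest concentration. The concentration for 50% growth inhibition is given as GI50. TGI: total growth inhibition.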

Common to all, as to assay: growth of human tumour cells (NCI), 48 h
For experiment [1], the system named is 786-0 renal.
The test system of experiment [2] is CAKI-1 renal.
In experiment [3] the test system is CCRF-CEM leukemia.
The subject of experiment [4] is HCC-2998 colon.
The test system of experiment [5] is M14 melanoma.
Experiment [6] has as its system NCI-H460 lung.
For experiment [7], the system named is NCI-H522 lung.
Experiment [8] concerns OVCAR-8 ovarian.
Experiment [9] relates to SNB-75 CNS.

In the case of `COc1cc(F)ccc1-c1ncnc(Nc2cccc(CS(C)(=N)=O)c2)n1` (stereo not drawn), the GI50 in [1] is 1.18 µM; in experiment [2], 1.92 µM; in experiment [3], 0.447 µM; in experiment [4], 2.54 µM; in [5], 2.25 µM; in experiment [6] it was 1.79 µM. Besides, the GI50 in experiment [7] was 1.6 µM; in [8], 1.16 µM; in [9], 0.434 µM. The TGI in experiment [1], in experiment [2], in experiment [3], in [4], in [5] and in experiment [6] was > 100 µM in each case. Further, the values for the TGI in [7], in [8] and in [9] were 6.34 µM, > 100 µM and 3.46 µM, respectively.

`COc1ccc(-c2nn(-c3ccc(NC(=O)c4ccc(Cl)c(Cl)c4)cc3)cc2-c2ccncc2)cc1Cl`: the GI50 in experiment [1] was 1.01 µM; in [2], 1.33 µM; in experiment [3] it was 3.63 µM; in experiment [4], 1.85 µM; in [5], 1.67 µM; in experiment [6] it was 2.02 µM. The GI50 in experiment [8] was > 25.8 µM; in [9], 1.26 µM. The TGI in experiment [1] was 2.53 µM; in experiment [2], 5.26 µM; in experiment [3] it was > 50 µM; in experiment [4] it was > 50 µM; in experiment [5] it was > 12.9 µM; in experiment [6] it was > 50 µM. In addition, the TGI was > 46.3 µM in [7], > 50 µM in experiment [8] and > 50 µM in experiment [9].

For the molecule `O=C(Nc1ccncc1)C(=O)c1cn(S(=O)(=O)c2ccc(F)cc2)c2ccccc12`, the GI50 in experiment [1] was 4.55 µM; in experiment [2], 2.19 µM; in [3], 6.21 µM; in experiment [4], 8.57 µM; in experiment [5], 1.78 µM; in experiment [6], 16.3 µM. In addition, the figures for the GI50 in experiment [7], in experiment [8] and in experiment [9] were 0.823 µM, 4.33 µM and 2.76 µM, respectively. Moreover, the TGI is 79.7 µM in experiment [1]; 10.9 µM in experiment [2]; > 100 µM in experiment [3]; > 100 µM in experiment [4]; > 100 µM in [5]; > 100 µM in [6]. For the same molecule, the TGI was > 100 µM in [7], > 100 µM in [8] and 15.7 µM in [9].

Take `CCSc1ncnc2c1ncn2C1OC(CO)C(O)C1O` (stereo not drawn): the GI50 in [1] is 0.449 µM; in experiment [2], 0.272 µM; in experiment [3] it was 0.146 µM; in experiment [4], 0.203 µM; in [5], 0.589 µM; in [6] it was 0.6 µM. Further, the GI50 is 0.648 µM in experiment [7], 0.296 µM in [8] and > 34.1 µM in [9]. Moreover, the TGI is > 100 µM in experiment [1]; > 55.4 µM in experiment [2]; > 100 µM in experiment [3]; 7.35 µM in [4]; > 100 µM in experiment [5]; > 100 µM in experiment [6]. For the same molecule, the TGI in experiment [7] is > 100 µM; in [8], 16 µM; in experiment [9], > 100 µM.

Turning to `COc1ccc2[nH]cc(C3(c4c[nH]c5ccc(OC)cc45)C(=O)Nc4ccc(F)cc43)c2c1`, the GI50 in experiment [1] was 3.39 µM; in experiment [2] it was 2.29 µM; in [3] it was 3.04 µM; in [4], 2.93 µM; in experiment [5], 2.41 µM; in experiment [6], 2.3 µM. The figures for the GI50 in [7], in experiment [8] and in [9] were 1.81 µM, 2.75 µM and 1.38 µM, respectively. The TGI in [1] was found to be 12.5 µM; in [2], 10.6 µM; in experiment [3] it was 22.4 µM; in experiment [4], 8.97 µM; in experiment [5] it was 6.77 µM; in experiment [6], 5.17 µM. The figures for the TGI in experiment [7], in experiment [8] and in experiment [9] were 3.77 µM, 9.67 µM and 8.23 µM, respectively.

For the molecule `Cn1cc(C2=C(c3cn(CCCCO)c4ccccc34)C(=O)NC2=O)c2ccccc21`, the GI50 in [1] is 8.81 µM; in [2] it was 11.8 µM; in [3], 6 µM; in experiment [4], 16.3 µM; in [5], 16.6 µM; in [6], 8.41 µM. Also, the GI50 in experiment [7] was 10.4 µM; in experiment [8], 8.61 µM; in experiment [9], 2.31 µM. Further, the TGI in experiment [1], in experiment [2], in experiment [3], in [4], in [5] and in [6] was > 25 µM in each case. For the same molecule, the TGI was > 25 µM in experiment [7], 24.8 µM in experiment [8] and > 25 µM in experiment [9].

For the molecule `O=C1OCC2=C1C(c1cccc(Br)c1)c1cc3c(cc1N2CCO)CCC3` (stereo not drawn), the GI50 in experiment [1] is 0.201 µM; in [2] it was 0.22 µM; in [3], 0.148 µM; in experiment [4], 0.13 µM; in [5], 0.078 µM; in experiment [6], 0.101 µM. The GI50 in [7] was 0.0148 µM; in experiment [8], 0.14 µM; in experiment [9], 0.0607 µM. In addition, the TGI was 6.22 µM in experiment [1]; 8.15 µM in experiment [2]; 10 µM in experiment [3]; 1.66 µM in [4]; 5.78 µM in experiment [5]; 5.19 µM in [6]. Also, the figures for the TGI in experiment [7], in experiment [8] and in experiment [9] were 0.521 µM, 0.852 µM and 9.41 µM, respectively.

Regarding `C=C(C)[C@@H]1CC[C@]2(C)[C@H](CC=C3[C@@H]4CC(C)(C)CC[C@]4(C(N)=O)CC[C@]32C)[C@@]1(C)CCC#N`, the GI50 was 2 µM in [1]; 3.01 µM in experiment [2]; 3.02 µM in experiment [3]; 4.02 µM in experiment [4]; 3.11 µM in experiment [5]; 2.93 µM in [6]. The GI50 in [7] is 3.07 µM; in experiment [8], 5.24 µM; in experiment [9], 2.33 µM. Besides, the TGI in experiment [1] was 4.12 µM; in experiment [2] it was > 100 µM; in experiment [3], > 100 µM; in experiment [4], > 100 µM; in [5] it was > 100 µM; in [6] it was 8.62 µM. Also, the TGI in [7] is > 100 µM; in [8], > 100 µM; in [9] it was 9.71 µM.
